Experimental data as given in patent US20160002248A1, “GLS1 INHIBITORS FOR TREATING DISEASE” (Board of Regents, The University of Texas System, priority 2014, published 2016).

Experiments:
A549 cells = experiment: Proliferation Assay (A549 cell viability, Cell Titer Fluor); format: cell-based; settings: Homo sapiens, 72 hours
Procedure, shortened: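 Compound was added to A549 cells (1000/well, pre-grown 24 h in RPMI 1640 plus 10% dialyzed FBS) at 0.5% DMSO and left 72 h under 37 °C, 5% CO2, ambient O2. Live-cell fluorescence (Cell Titer Fluor) gave the EC50.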

[1] = biological target: T1, purified recombinant human GAC (GLS1) (Homo sapiens, UniProt O94925); experiment: GLS1 Enzymatic Activity Assay (dual-coupled enzymatic assay); format: biochemical
T1 sequence (O94925 55-598 isoform O94925-3 limits assumed): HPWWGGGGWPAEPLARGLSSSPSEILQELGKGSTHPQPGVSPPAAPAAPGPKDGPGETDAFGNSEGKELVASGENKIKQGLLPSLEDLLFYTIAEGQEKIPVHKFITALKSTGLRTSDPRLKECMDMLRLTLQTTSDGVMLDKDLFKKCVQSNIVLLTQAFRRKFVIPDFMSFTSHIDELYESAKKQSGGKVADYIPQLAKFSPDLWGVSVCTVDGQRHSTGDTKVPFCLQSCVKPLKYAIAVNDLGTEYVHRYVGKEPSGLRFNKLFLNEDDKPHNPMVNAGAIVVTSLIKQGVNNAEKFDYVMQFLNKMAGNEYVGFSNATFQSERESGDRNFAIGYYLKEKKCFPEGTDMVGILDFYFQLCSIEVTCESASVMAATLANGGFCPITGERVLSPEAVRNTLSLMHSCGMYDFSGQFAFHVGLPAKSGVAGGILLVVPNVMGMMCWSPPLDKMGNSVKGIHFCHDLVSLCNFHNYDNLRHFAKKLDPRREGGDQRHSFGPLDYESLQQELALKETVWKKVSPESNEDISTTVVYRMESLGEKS
Procedure, shortened: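 GAC activity measured by coupling glutamate to glutamate oxidase and HRP, generating resorufin from Amplex UltraRed. Enzyme (2 nM) preincubated with 50 mM potassium phosphate 10 min at room temperature, then inhibitor 10 min; 1 mM glutamine substrate, 1% DMSO. Fluorescence 530/590 nm, kinetic or 20-min endpoint; IC50 from four-parameter logistic fit.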

EC50 (A549 cells) [µM]	IC50 [1] [µM]	SMILES
< 0.1	< 0.1	O=C(NCc1ccccn1)c1cn(CCCCc2cc3cc(-c4ccccc4F)[nH]c3nn2)nn1 [Example 134, 1-(4-(6-(2-fluorophenyl)-7H-pyrrolo[2,3-c]pyridazin-3-yl)butyl)-N-(pyridin-2-ylmethyl)-1H-1,2,3-triazole-4-carboxamide]
0.1 to 0.5	< 0.1	CC(C)(O)c1ccc(CNC(=O)c2cn(CCCCc3cc4c(C5CC5)c(C5CC5)[nH]c4nn3)nn2)cn1 [Example 213, 1-(4-{5,6-dicyclopropyl-7H-pyrrolo[2,3-c]pyridazin-3-yl}butyl)-N-{[6-(2-hydroxypropan-2-yl)pyridin-3-yl]methyl}-1H-1,2,3-triazole-4-carboxamide]
0.1 to 0.5	< 0.1	O=C(NCc1ccccn1)c1cn(CCCCc2cc3c(-c4ccc(C(F)(F)F)cc4)c(C4CC4)[nH]c3nn2)nn1 [Example 123, 1-(4-{6-cyclopropyl-5-[4-(trifluoromethyl)phenyl]-7H-pyrrolo[2,3-c]pyridazin-3-yl}butyl)-N-(pyridin-2-ylmethyl)-1H-1,2,3-triazole-4-carboxamide]
0.1 to 0.5	< 0.1	Cc1ccc(CNC(=O)c2cn(CCCCc3cc4c(-c5cccc(C(C)(C)O)c5)c(C5CC5)[nH]c4nn3)nn2)cn1 [Example 160, 1-(4-{6-cyclopropyl-5-[3-(2-hydroxypropan-2-yl)phenyl]-7H-pyrrolo[2,3-c]pyridazin-3-yl}butyl)-N-[(6-mcthylpyridin-3-yl)methyl]-1H-1,2,3-triazole-4-carboxamide]
0.1 to 0.5	< 0.1	CS(=O)(=O)N1CC(c2cc3cc(CCCCn4cc(C(=O)NCc5cc(OC(F)(F)F)ccc5F)nn4)nnc3[nH]2)C1 [Example 130, N-{[2-fluoro-5-(trifluoromethoxy)phenyl]methyl}-1-{4-[6-(1-methanesulfonylazetidin-3-yl)-7H-pyrrolo[2,3-c]pyridazin-3-yl]butyl}-1H-1,2,3-triazole-4-carboxamide]
0.5 to 5	0.1 to 0.5	O=C(NCc1ccccn1)c1cn(CCCCc2cc3c(-c4cncnc4)c(C4CC4)[nH]c3nn2)nn1 [Example 129, 1-(4-(6-cyclopropyl-5-(pyrimidin-5-yl)-7H-pyrrolo[2,3-c]pyridazin-3-yl)butyl)-N-(pyridin-2-ylmethyl)-1H-1,2,3-triazole-4-carboxamide]
0.5 to 5	< 0.1	O=C(NCc1cc(OC(F)(F)F)ccc1F)c1cn(CCCCc2cc3cc(C4CN(C(=O)C5COC5)C4)[nH]c3nn2)nn1 [Example 235, N-{[2-fluoro-5-(trifluoromethoxy)phenyl]methyl}-1-(4-{6-[1-(oxetane-3-carbonyl)azetidin-3-yl]-7H-pyrrolo[2,3-c]pyridazin-3-yl}butyl)-1H-1,2,3-triazole-4-carboxamide]
0.5 to 5	0.1 to 0.5	CC(C)CNC(=O)c1nnc(CCCCc2cc3cc(Cc4ccccc4)[nH]c3nn2)s1 [Example 10, 5-(4-(6-Benzyl-7H-pyrrolo[2,3-c]pyridazin-3-yl)butyl)-N-isobutyl-1,3,4-thiadiazole-2-carboxamide]
0.5 to 5	< 0.1	O=C(NCc1ccccn1)c1cn(CCCCc2cc3c(Cc4ccccc4)c(C4CC4)[nH]c3nn2)nn1 [Example 102, 1-(4-{5-benzyl-6-cyclopropyl-7H-pyrrolo[2,3-c]pyridazin-3-yl}butyl)-N-(pyridin-2-ylmethyl)-1H-1,2,3-triazole-4-carboxamide]
0.1 to 0.5	< 0.1	Cc1ccc(CNC(=O)c2cn(CCCCc3cc4cc(-c5cccc(C(F)(F)F)c5)[nH]c4nn3)nn2)cn1 [Example 203, N-[(6-methylpyridin-3-yl)methyl]-1-(4-{6-[3-(trifluoromethyl)phenyl]-7H-pyrrolo[2,3-c]pyridazin-3-yl}butyl)-1H-1,2,3-triazole-4-carboxamide]
